“Also recorded” adds a separate entry of the source. Where two headings read alike, the source gives them in different places.
Tests used:
[1] = molecular target: hCatS (Homo sapiens, UniProt P25774); assay: In vitro inhibition of purified human Cathepsin S (Z-FVR-AMC); type: biochemical; settings: 30 min incubation with inhibitor, mean ± SD, triplicate
Method: (§1) Cathepsin (e.g. Cathepsin K/L/V/S/B), in particular purified human Cathepsin, was diluted in freshly prepared reaction buffer consisting of 50 mM MES pH 5.5, 25 mM EDTA and 2.5 mM DTT. 0.05% Tween20 (v/v) may be added to the reaction buffer of the Cathepsin K.
(§2) Activity assays may be conducted in a suitable manner. In the experiments described herein, the assays were typically conducted in Corning 3820 Low Volume 384 Well Assay Plate with a final assay volume of 20 μL. Plates were shaken at 600 rpm for 1 minute and centrifuged at 1000 rpm for 1 minute prior to incubation. Cathepsin activity was quantified using synthetic fluorogenic peptide substrate Z-FR-AMC (Cath K, L, V), Z-RR-AMC (Cath B) or Z-FVR-AMC (Cath S). Fluorescence intensity (λex=350 nm, λem=440 nm) was measured every 2 minutes in arbitrary units (A.U.) on a CLARIOstar (BMG Labtech) microplate reader and values were converted to product formation [AMC]. […] Measurements were performed in triplicate.
(§3) Inhibitors (200 nL, 100× final concentration in DMSO) were diluted in reaction buffer (10 μL). Purified human Cathepsin (5 μL, 4× final concentration) was added and the reaction mixture was incubated for 30 min at room temperature. Fluorogenic substrate (5 μL, 4× final concentration) was added and fluorescence intensity was measured every 2 minutes for 30-90 minutes.
(§4) The potency of the compounds as CatK inhibitors was assessed in an in vitro inhibition assay on purified human CatK (Table 2). Cathepsin was incubated with inhibitor, and the hydrolysis of substrate was initiated by addition of substrate.

[2] = molecular target: hCatV (Homo sapiens, UniProt O60911); assay: In vitro inhibition of purified human Cathepsin V (Z-FR-AMC); type: biochemical; settings: 30 min incubation with inhibitor, mean ± SD, triplicate
Method: as §1
as §2, with “In the experiments described herein, the assays were typically conducted in Corning 3820 Low Volume 384 Well Assay Plate with a final assay volume of 20 μL.” left out
as §3, §4

[3] = molecular target: T1, hCatK (Homo sapiens, UniProt P43235); assay: In vitro inhibition of purified human Cathepsin K (fluorogenic substrate Z-FR-AMC); type: biochemical; settings: for IC50: purified human Cathepsin, 30 min incubation with inhibitor, mean ± SD, triplicate
T1 sequence (P43235 115-329): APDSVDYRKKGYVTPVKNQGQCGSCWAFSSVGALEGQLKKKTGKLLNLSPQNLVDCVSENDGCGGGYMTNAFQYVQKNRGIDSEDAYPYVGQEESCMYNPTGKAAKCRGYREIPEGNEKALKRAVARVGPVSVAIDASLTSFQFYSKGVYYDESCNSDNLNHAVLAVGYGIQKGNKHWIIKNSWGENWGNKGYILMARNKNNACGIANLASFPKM
Method: as §1, §2, §3, §4

[4] = molecular target: T1, hCatK; assay: Kinetic evaluation of covalent inhibitors on purified hCatK; type: biochemical; settings: 100 pM hCatK, 4 μM Z-FR-AMC, 26° C., reaction started by addition of CatK; for Ki: read-out: Kl
Method: The reaction kinetics of irreversible covalent inhibitor compounds may be assed in the following manner. Inhibitors (200 nL, 100× final concentration in DMSO) were diluted in reaction buffer (10 μL). Fluorogenic substrate (5 μL, 4× final concentration) was added and the reaction was started by addition of Cathepsin (5 μL, 4× final concentration). Fluorescence intensity was measured every 2 minutes for 60 minutes and fitted to equation I to obtain the Kobs. The obtained values were plotted against the inhibitor concentration and fitted to equation II to obtain kinetic parameters Kinact (rate of covalent bond formation) and Ki.
Kinetic evaluation of irreversible covalent inhibitors was conducted by following the progress curve of inhibition when the hydrolysis of substrate is started by addition of the enzyme (instead of incubating the protease with the inhibitor prior to addition of the substrate). From this curve the maximum rate of covalent bond formation (Kinact) could be determined (Table 4).

[5] = molecular target: hCatL (Homo sapiens, UniProt P07711); assay: In vitro inhibition of purified human Cathepsin L (Z-FR-AMC); type: biochemical; settings: 30 min incubation with inhibitor, mean ± SD, triplicate
Method: as §1
as §2, with “In the experiments described herein, the assays were typically conducted in Corning 3820 Low Volume 384 Well Assay Plate with a final assay volume of 20 μL.” left out
as §3, §4

[6] = molecular target: hCatB (Homo sapiens, UniProt P07858); assay: In vitro inhibition of purified human Cathepsin B (Z-RR-AMC); type: biochemical; settings: 30 min incubation with inhibitor, mean ± SD, triplicate
Method: as §1
as §2, with “In the experiments described herein, the assays were typically conducted in Corning 3820 Low Volume 384 Well Assay Plate with a final assay volume of 20 μL.” left out
as §3, §4

[7] = molecular target: T1, hCatK; assay: Jump dilution assay for reversibility of hCatK inhibition; type: biochemical; settings: 300× dilution into fluorogenic substrate solution
Method: FIG. 3 provides a schematic overview of a jump dilution assay. A) Dose response curve for a 300-fold dilution of inhibitor concentration from full inhibition to full activity. B) Protocol and concentrations for incubation and dilution. C) Progress curves for hCatK proteolytic activity with inhibitor compounds ODN, 4, 5, 6 after dilution.
Reversibility of protease inhibition by an inhibitor may be assessed in a jump dilution assay. An exemplary jump dilution assay is provided in R. A. Copeland, A. Basavapathruni, M. Moyer, M. P. Scott, Anal. Biochem. 2011, 416, 206. In a jump dilution assay the protease (e.g. CatK) is incubated with inhibitor at high concentration to allow full active site occupation, and subsequently diluted, e.g. 300×, into fluorogenic substrate solution resulting in an inhibitor concentration corresponding with full protease activity. The hydrolysis of fluorogenic substrate is monitored over an extended time period, e.g. at least 60 minutes. […] The assay results may be compared with the results using a known irreversible inhibitor of the protease as a control. E-64 represents an established pan-Cathepsin irreversible inhibitor, suitable for use as a positive control with most cysteine protease Cathepsins.
Reversibility of hCatK inhibition was assessed in a jump dilution assay. Established pan-Cathepsin inhibitor E-64 was taken along as a control for irreversible inhibition. Purified hCatK was incubated with inhibitors at high concentration to allow full active site occupation, and subsequently diluted 300× into fluorogenic substrate solution resulting in an inhibitor concentration corresponding with full activity (FIG. 3).

[8] = molecular target: T2, Cathepsin K (Homo sapiens, UniProt P43235); assay: LC-MS of intact CatK and CatK-inhibitor complexes; type: binding
T2 sequence (P43235 115-329): T1 sequence (P43235 115-329)
Method: The masses were determined from deconvoluted electrospray ionization mass spectra of CatK complexes. FIG. 4A to FIG. 4E each provide the result for a sample. In each of these FIGS. 4A to 4E the first panel provides the UPLC chromatogram, the second panel provides the electrospray ionization mass spectrum, and the third panel provides the corresponding deconvoluted electrospray ionization mass spectrum (average isotopes) with an indication of the measured mass of the predominant species. FIG. 4A provides the results obtained for intact CatK. FIG. 4B provides the results obtained for CatK.
Cathepsin K (3 μM) in reaction buffer ([…]) was incubated with inhibitor (100 μM) at 37° C. for 6 hours prior to analysis. 1 μL injections of the sample were made onto a XEVO-G2XSQTOF#YEA928 UPLC-MS system with a Waters Acquity CM detector. Chromatographic separation was carried out on a ACQUITY UPLC® Protein BEH C4 Column over a 12 minute gradient elution of 2% to 100% acetonitrile in water (0.1% formic acid) at a flow rate of 0.500 mL/min. For the first 4 minutes the flow was diverted to the waste to avoid contamination of the MS with high concentrations of buffer components. After 4 minutes, the elution flow was ionized with an ESI ionization source and measured on a XEVO-G2XSQTOF. The results were analyzed using MassLynx V4.1. The total mass of the complex was obtained by deconvolution of electrospray ionization mass spectrum envelope (average isotopes) with the MaxEnt1 function.
Cathepsin K was incubated with ODN, 4, 5 or 6 for 6 h to allow full covalent bond formation and submitted for measurement without any digestion steps, according to the method for LC-MS for intact CatK and CatK-inhibitor complexes described in the assays section above.

hCatL, sequence (P07711 114-333): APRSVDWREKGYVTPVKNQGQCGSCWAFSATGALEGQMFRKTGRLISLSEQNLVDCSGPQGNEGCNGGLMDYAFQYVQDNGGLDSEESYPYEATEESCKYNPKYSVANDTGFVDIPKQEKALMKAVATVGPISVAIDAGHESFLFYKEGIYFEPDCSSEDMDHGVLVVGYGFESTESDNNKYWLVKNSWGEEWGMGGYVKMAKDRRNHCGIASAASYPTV
hCatV, sequence (O60911 114-334): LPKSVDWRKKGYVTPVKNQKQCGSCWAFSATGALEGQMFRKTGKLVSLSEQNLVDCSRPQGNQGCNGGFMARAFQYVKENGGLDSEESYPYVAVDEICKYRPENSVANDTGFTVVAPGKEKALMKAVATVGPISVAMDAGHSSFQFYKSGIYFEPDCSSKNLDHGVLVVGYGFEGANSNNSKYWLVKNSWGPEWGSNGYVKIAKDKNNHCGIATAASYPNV
hCatS, sequence (P25774 115-331): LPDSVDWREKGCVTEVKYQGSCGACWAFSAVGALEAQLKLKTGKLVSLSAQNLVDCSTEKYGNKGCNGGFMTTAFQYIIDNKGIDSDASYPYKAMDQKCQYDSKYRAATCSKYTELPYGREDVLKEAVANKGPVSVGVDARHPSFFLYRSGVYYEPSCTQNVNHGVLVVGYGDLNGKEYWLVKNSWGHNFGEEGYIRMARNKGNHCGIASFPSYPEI

| IC50 [1] [nM] | IC50 [2] [nM] | IC50 [3] [nM] | kinact [4] [min⁻¹] | kinact/Kl [4] [M⁻¹ s⁻¹] | Ki [4] [nM] | IC50 [5] [nM] | IC50 [6] [nM] | kinact ([4]; read-out: kinact (converted)) [min⁻¹] | reversibility of hCatK inhibition [7] | Measured mass complex ([8]; CatK 3 μM, inhibitor 100 μM, 37° C., 6 h, deconvoluted ESI mass) | selectivity for CatK over structurally related human Cathepsins ([3]; in words, from Table 2) | Compound | formation of covalent CatK-inhibitor complex ([8]; 6 h incubation, intact protein LC-MS) |
| --- | --- | --- | --- | --- | --- | --- | --- | --- | --- | --- | --- | --- | --- |
| 17.8 ± 0.303 | 909 ± 105 | 0.57 ± 0.009 | – | – | – | – | – | – | – | – | – | CC(C)(F)C[C@H](N[C@@H](c1ccc(-c2ccc(S(C)(=O)=O)cc2)cc1)C(F)(F)F)C(=O)NCC#N [Compound 2, (S)—N-(cyanomethyl)-4-fluoro-4-methyl-2-(((S)-2,2,2-trifluoro-1-(4′-(methylsulfonyl)-[1,1′-biphenyl]-4-yl)ethyl)amino)pentanamide, reference compound] | – |
| – | – | 1.9 ± 0.032 | 0.081 | 117000 | 11.4 | 3.5 ± 0.22 | – | – | – | – | – | CC(C)C[C@H](NC(=O)[C@H]1O[C@@H]1C(=O)O)C(=O)NCCCCN=C(N)N [Compound E-64, reference compound] | – |
| > 100000 | > 100000 | 26200 ± 2240 | – | – | – | > 100000 | > 100000 | – | – | – | – | C#CC1(NC(=O)[C@H](CC(C)(C)F)N[C@@H](c2ccc(-c3ccc(S(C)(=O)=O)cc3)cc2)C(F)(F)F)CC1 [Compound 3, (S)—N-(1-ethynylcyclopropyl)-4-fluoro-4-methyl-2-(((S)-2,2,2-trifluoro-1-(4′-(methylsulfonyl)-[1,1′-biphenyl]-4-yl)ethyl)amino)pentanamide] | – |
| 55.4 ± 2.94 | 16.2 ± 0.883 | 46.9 ± 1.81 | – | 1650 | 193 | 102 ± 5.14 | 98.6 ± 5.88 | 0.019 | irreversible | 24296 | all selectivity is lost | CC(C)(F)C[C@H](N[C@@H](c1ccc(-c2ccc(S(C)(=O)=O)cc2)cc1)C(F)(F)F)C(=O)NCC#CBr [Compound 6, (S)—N-(3-bromoprop-2-yn-1-yl)-4-fluoro-4-methyl-2-(((S)-2,2,2-trifluoro-1-(4′-(methylsulfonyl)-[1,1′-biphenyl]-4-yl)ethyl)amino)pentanamide] | formation of a covalent hCatK—inhibitor complex; also recorded: covalent complex formed |
